Entries after “also recorded” stand apart in the source; their conditions may differ.
How the values were obtained:
[1] = Shelf-stability of the formulated radiotracer in PBS (10% EtOH); format: physicochemical
Method: (§1) [^18F]4FN was synthesized on the automated module GE TracerLab-FX from precursor 1 in 6.8±2.5% (n=22) activity yield, by means of a copper-mediated radiofluorination of the corresponding Boc-protected pinacol boronic ester, followed by deprotection, purification and reformulation (Scheme 2; Tredwell et al., 2014). [^18F]4FN was obtained in >99% radiochemical purity, 50-140 GBq/μmol and up to 4 h shelf-stability in PBS (10% EtOH). [^18F]4FN was also stable in mouse plasma for at least 1 h.

[2] = Stability in mouse plasma; format: in vitro ADME
Method: as §1

LPS-induced arthritis = assay: LPS-induced model of arthritis, PET imaging and L-012 BLI; format: in vivo, mouse
Method: Herein, C57BL6/N mice were injected i.a. with LPS, left ankle, or vehicle, right ankle. After 24 hours, mild inflammation of the left ankle was confirmed by visual inspection. 1 hour dynamic PET scans were acquired post i.v. injection of [^18F]4FN. Mice were subsequently imaged for ROS by BLI (L-012). A) 1 hour static [^18F]4FN PET image (left) and BLI (right). B) PET image-derived time-activity curves (TACs) were quantified for the ankles (left, n=4). […] C) H&E staining cross-validated local inflammation (vehicle, left panel; LPS, right panel), utilizing the same mouse as imaged in A. D) Image-based biodistribution was calculated from the dynamic PET/CT data and SUV plotted for various organs over time.
[^18F]4FN PET was employed to image a model of inflammatory arthritis and validate its correlation with L012, a known ROS/RNS bioluminescence sensor.

[3] = tested on: neutrophil-like human HL-60 cells; assay: [^18F]4FN cellular retention in PMA-activated neutrophil-like HL-60 cells; format: cell-based; conditions: PMA-activated differentiated HL-60 cells, normalized to vehicle
Method: HL-60 cells were first differentiated to yield “neutrophil-like” cells. Then, in parallel, cell aliquots from each batch were imaged with L-012 (to confirm ROS production by bioluminescence) and incubated with 6.2 kBq of [^18F]4FN. To induce ROS, all cells were incubated with PMA. […] Data were quantified as a ratio of the cell-associated radioactive counts per milligram protein over concentration of radiotracer in the extracellular space, and then normalized to vehicle.

Oc1ccc([18F])c2ccccc12 [[^18F]4FN, 4-[^18F]fluoro-1-naphthol]
shelf-stability [1]: up to 4 h
stable in mouse plasma [2]: at least 1 h
correlation of PET accumulation in inflamed ankles with L012 bioluminescence (LPS-induced arthritis; 1 hr, per animal basis): correlated strongly with L012; also recorded: directly correlated
imaging of inflammatory ROS burst by PET (LPS-induced arthritis; C57BL6/N mice, LPS i.a. left ankle, i.v. tracer): readily image the inflammatory ROS burst
[^18F]4FN retention in activated cells vs vehicle (ratio) [3]: > 1

Source: patent publication US20220218851A1, “COMPOUNDS AND METHODS FOR IMAGING IMMUNE ACTIVITY” (Board of Regents, The University of Texas System, priority 2019, published 2022)
